This note sets out measurements from DBAASP.

Common to all, as to test: ≥ marks a high value that may be exact or a test limit, other limits are often not marked, values filed in µg/mL are converted to µM
For one assay, the system named is Escherichia coli.
The test system of another assay is Staphylococcus aureus.
Assay [1] has as its system Pseudomonas aeruginosa ATCC 27853.
Assay [2] has as its system Candida albicans ATCC 90028.
Assay [3] concerns Staphylococcus aureus ATCC 29213.
Assay [4] relates to Escherichia coli ATCC 25922.
The test system of assay [5] is Staphylococcus aureus ATCC 25923.
The test system of assay [6] is Enterococcus faecalis ATCC 29212.
The test system of assay [7] is Klebsiella pneumoniae ATCC 700603.

SMILES strings stand for the structures. In brackets after ≈: the same amount, converted by molar mass.

By MIC is commonly meant the lowest concentration that inhibits growth of the organism. Turning to `CC[C@H](C)[C@H](NC(=O)[C@H](CCCCN)NC(=O)[C@H](CCCCN)NC(=O)CNC(=O)[C@@H](NC(=O)CNC(=O)[C@H](Cc1ccccc1)NC(=O)[C@H](CC(N)=O)NC(=O)CNC(=O)[C@H](CO)NC(=O)[C@H](CC(C)C)NC(=O)[C@@H](NC(=O)[C@@H](N)CO)[C@@H](C)CC)C(C)C)C(=O)N[C@H](C(=O)N[C@H]1CSSC[C@@H](C(=O)O)NC(=O)[C@H](CC(C)C)NC(=O)CNC(=O)[C@H](CO)NC(=O)[C@H](CC(C)C)NC(=O)CNC1=O)C(C)C` [SILSGNFGVGKKIVCGLSGLC], the MIC in the assay on Escherichia coli is 25 µM (≈ 51.3 µg/mL); in the assay on Staphylococcus aureus, more than 100 µM.
Take `CC[C@H](C)[C@H](NC(=O)[C@H](CCCCN)NC(=O)[C@H](CC(=O)O)NC(=O)[C@H](Cc1ccccc1)NC(=O)[C@H](CC(C)C)NC(=O)[C@@H](N)CCCN=C(N)N)C(=O)N[C@@H](CCCN=C(N)N)C(=O)N[C@@H](CCC(N)=O)C(=O)N[C@H](C(=O)N[C@H](C(=O)N[C@@H](CCCN=C(N)N)C(=O)N[C@@H](CCCCN)C(=O)O)[C@@H](C)CC)C(C)C` [RLFDKIRQVIRK]: the MIC in [1] stood at 10 µM (≈ 15.7 µg/mL); in assay [2], 5 µM (≈ 7.86 µg/mL); in assay [3], 10 µM (≈ 15.7 µg/mL); in assay [4] it was 5 µM (≈ 7.86 µg/mL).
As to `NCC(=O)N[C@@H](CCCN=C(N)N)C(=O)N[C@@H](CCCN=C(N)N)C(=O)N1CCC[C@H]1C(=O)N[C@@H](CCCN=C(N)N)C(=O)N1CCC[C@H]1C(=O)N[C@@H](CCCN=C(N)N)C(=O)N1CCC[C@H]1C(=O)N[C@@H](CCCN=C(N)N)C(=O)N1CCC[C@H]1C(=O)N[C@@H](Cc1c[nH]c2ccccc12)C(=O)N[C@@H](Cc1c[nH]c2ccccc12)C(=O)N[C@@H](Cc1c[nH]c2ccccc12)C(=O)N[C@@H](Cc1c[nH]c2ccccc12)C(N)=O` [GRRPRPRPRPWWWW], the MIC was 20 µM (≈ 39.8 µg/mL) in [1], 40 µM (≈ 79.5 µg/mL) in assay [3] and 20 µM (≈ 39.8 µg/mL) in assay [4].
For the compound `CC[C@H](C)[C@H](NC(=O)[C@H](CCCN=C(N)N)NC(=O)[C@H](CCC(N)=O)NC(=O)[C@@H](NC(=O)[C@@H](NC(=O)[C@H](CCCN=C(N)N)NC(=O)[C@@H](N)CCCCN)[C@@H](C)CC)C(C)C)C(=O)N[C@@H](CCCCN)C(=O)N[C@@H](CC(=O)O)C(=O)N[C@@H](C)C(=O)N[C@@H](CC(C)C)C(=O)N[C@@H](CCCN=C(N)N)C(=O)O` [KRIVQRIKDALR], the MIC amounted to 20 µM (≈ 29.9 µg/mL) in assay [1], 20 µM (≈ 29.9 µg/mL) in [2], 40 µM (≈ 59.8 µg/mL) in [3] and 10 µM (≈ 15 µg/mL) in [4].
For `CC[C@H](C)[C@H](NC(=O)[C@H](CCCCN)NC(=O)[C@H](CC(C)C)NC(=O)[C@H](C)NC(=O)[C@H](CCCCN)NC(=O)CNC(=O)[C@H](CC(C)C)NC(=O)[C@H](CC(C)C)NC(=O)[C@H](CO)NC(=O)CNC(=O)[C@H](Cc1ccccc1)NC(=O)CN)C(=O)NCC(=O)N[C@H](C(=O)N[C@@H](CC(N)=O)C(=O)N[C@@H](CC(C)C)C(=O)N[C@@H](CC(C)C)C(N)=O)[C@@H](C)O` [GFGSLLGKALKIGTNLL], the MIC against Escherichia coli was 25 µM (≈ 42.5 µg/mL); with Staphylococcus aureus, 6 µM (≈ 10.2 µg/mL).
For the compound `CC(C)C[C@H](NC(=O)[C@H](CCCCN)NC(=O)[C@H](CC(C)C)NC(=O)[C@H](CC(C)C)NC(=O)[C@H](CCCCN)NC(=O)[C@H](CCCCN)NC(=O)[C@@H]1CSSC[C@H](N)C(=O)N[C@@H](CCCCN)C(=O)N[C@@H](CCCCN)C(=O)N[C@@H](CC(C)C)C(=O)N[C@@H](CC(C)C)C(=O)N[C@@H](CCCCN)C(=O)N[C@@H](CC(C)C)C(=O)N1)C(=O)N[C@@H](C)C(=O)NCC(=O)O` [CKKLLKLCKKLLKLAG], the MIC was 40 µM (≈ 71.9 µg/mL) against Escherichia coli, more than 40 µM in assay [3] and 10 µM (≈ 18 µg/mL) in [4].
With `CC[C@H](C)[C@H](NC(=O)[C@H](CCCCN)NC(=O)[C@H](CO)NC(=O)[C@H](Cc1c[nH]c2ccccc12)NC(=O)[C@H](CC(C)C)NC(=O)CN)C(=O)N[C@@H](CCCCN)C(=O)N[C@@H](CCC(=O)O)C(=O)N[C@@H](C)C(=O)N[C@@H](C)C(=O)N[C@@H](CCCCN)C(=O)N[C@H](C(=O)N[C@@H](C)C(=O)NCC(=O)N[C@@H](CC(C)C)C(=O)N[C@@H](CCSC)C(=O)N[C@@H](C)C(=O)N[C@@H](CCSC)C(=O)NCC(=O)N[C@@H](Cc1ccccc1)C(=O)N[C@H](C(=O)N[C@@H](CC(N)=O)C(=O)N[C@@H](CC(=O)O)C(=O)N[C@@H](CCSC)C(=O)N[C@H](C(=O)O)C(C)C)C(C)C)[C@@H](C)O` [GLWSKIKEAAKTAGLMAMGFVNDMV], the MIC came to 22 µM (≈ 58.7 µg/mL) in assay [1], 22 µM (≈ 58.7 µg/mL) in [5], 11 µM (≈ 29.4 µg/mL) in assay [6] and 5.6 µM (≈ 14.9 µg/mL) in assay [4].
Regarding `CC[C@H](C)[C@H](NC(=O)[C@H](CCCN=C(N)N)NC(=O)[C@H](CCC(N)=O)NC(=O)[C@@H](NC(=O)[C@@H](NC(=O)[C@H](CCCN=C(N)N)NC(=O)[C@H](CCCCN)NC(=O)[C@@H](N)Cc1ccccc1)[C@@H](C)CC)C(C)C)C(=O)N[C@@H](CCCCN)C(=O)N[C@@H](CC(=O)O)C(=O)NCC(=O)N[C@@H](CC(C)C)C(=O)N[C@@H](CCCN=C(N)N)C(=O)O` [FKRIVQRIKDGLR], the MIC in assay [3] is more than 40 µM; in assay [4], 20 µM (≈ 32.6 µg/mL).
On to `CC[C@H](C)[C@H](NC(=O)[C@H](Cc1c[nH]c2ccccc12)NC(=O)[C@H](CCCCN)NC(=O)[C@@H](NC(=O)[C@H](CC(C)C)NC(=O)[C@H](CCCCN)NC(=O)CNC(=O)[C@@H](NC(=O)[C@@H](NC(=O)[C@@H](N)CO)[C@@H](C)O)[C@@H](C)CC)C(C)C)C(=O)N[C@H](C(=O)N[C@@H](CCCCN)C(=O)N[C@H](C(=O)N[C@H](C(=O)N[C@@H](CC(N)=O)C(=O)N[C@@H](CCCCN)C(=O)N[C@@H](Cc1ccccc1)C(=O)N[C@H](C(=O)N[C@@H](CCCCN)C(=O)N[C@@H](CCCCN)C(=O)O)[C@@H](C)O)C(C)C)[C@@H](C)O)[C@@H](C)CC` [STIGKLVKWIIKTVNKFTKK], for which the MIC against Escherichia coli was 2.4 µM (≈ 5.6 µg/mL); against Staphylococcus aureus, 4.8 µM (≈ 11.2 µg/mL).
With `CC(C)C[C@H](NC(=O)[C@H](CCCCN)NC(=O)[C@H](CC(C)C)NC(=O)[C@H](CC(C)C)NC(=O)[C@H](CCCCN)NC(=O)[C@H](CCCCN)NC(=O)[C@H](CCC(N)=O)NC(=O)[C@H](CC(C)C)NC(=O)[C@H](CCCCN)NC(=O)[C@H](CC(C)C)NC(=O)[C@H](CC(C)C)NC(=O)[C@H](CCCCN)NC(=O)[C@H](CCCCN)NC(=O)[C@@H](N)CC(C)C)C(=O)N[C@@H](C)C(=O)NCC(=O)O` [LKKLLKLQKKLLKLAG], the results for the minimal inhibitory concentration (MIC) in assay [3] and in assay [4] were more than 40 µM and 2.5 µM (≈ 4.59 µg/mL), respectively.
As for `CC[C@H](C)[C@H](N)C(=O)NCC(=O)N[C@@H](CCCCN)C(=O)N[C@@H](CC(C)C)C(=O)N[C@H](C(=O)N[C@@H](CCCCN)C(=O)N[C@@H](Cc1c[nH]c2ccccc12)C(=O)N[C@H](C(=O)N[C@H](C(=O)N[C@@H](CCCCN)C(=O)N[C@H](C(=O)N[C@H](C(=O)N[C@@H](CC(N)=O)C(=O)N[C@@H](CCCCN)C(=O)N[C@@H](Cc1ccccc1)C(=O)N[C@H](C(=O)N[C@@H](CCCCN)C(=O)N[C@@H](CCCCN)C(=O)O)[C@@H](C)O)C(C)C)[C@@H](C)O)[C@@H](C)CC)[C@@H](C)CC)C(C)C` [IGKLVKWIIKTVNKFTKK], the minimum inhibitory concentration (MIC) against Escherichia coli was determined as 2.1 µM (≈ 4.5 µg/mL); in the assay on Staphylococcus aureus, 3.7 µM (≈ 7.94 µg/mL).
Take `CC[C@H](C)[C@H](NC(=O)[C@@H](NC(=O)[C@@H]1CCCN1C(=O)[C@@H](NC(=O)[C@@H]1CCCN1C(=O)[C@H](CCCCN)NC(=O)[C@H](CCCCN)NC(=O)[C@H](CO)NC(=O)CN)C(C)C)[C@@H](C)CC)C(=O)N[C@@H](Cc1ccc(O)cc1)C(=O)N[C@H]1CSSC[C@@H](C(=O)N[C@@H](CCC(N)=O)C(=O)N[C@@H](CCCN=C(N)N)C(=O)N[C@@H](CCSC)C(=O)O)NC(=O)[C@H](CCCCN)NC(=O)[C@H](C)NC(=O)[C@H](CO)NC(=O)[C@H](CCCN=C(N)N)NC(=O)[C@H](CCCN=C(N)N)NC(=O)[C@H](CC(N)=O)NC1=O` [GSKKPVPIIYCNRRSAKCQRM]: the MIC in assay [7] and in [4] was 26.3 µM (≈ 63.9 µg/mL) each time.
In the case of `CC[C@H](C)[C@H](NC(=O)CN)C(=O)NCC(=O)N[C@@H](CO)C(=O)N[C@@H](CC(C)C)C(=O)N[C@@H](CC(C)C)C(=O)N[C@@H](C)C(=O)N[C@@H](CCCCN)C(=O)N[C@@H](C)C(=O)N[C@@H](C)C(=O)N[C@@H](CCCCN)C(=O)N[C@@H](CC(C)C)C(=O)NCC(=O)N[C@@H](C)C(=O)N[C@@H](CC(N)=O)C(=O)N[C@@H](CC(C)C)C(=O)N[C@@H](CC(C)C)C(N)=O` [GIGSLLAKAAKLGANLL], the MIC was 25 µM (≈ 40.2 µg/mL) against Escherichia coli and 12.5 µM (≈ 20.1 µg/mL) in the assay on Staphylococcus aureus.
For `CC(C)C[C@H](NC(=O)[C@H](CCCCN)NC(=O)[C@H](CC(C)C)NC(=O)[C@H](CC(C)C)NC(=O)[C@H](CCCCN)NC(=O)[C@H](CCCCN)NC(=O)[C@@H]1CCCN1C(=O)[C@H](CC(C)C)NC(=O)[C@H](CCCCN)NC(=O)[C@H](CC(C)C)NC(=O)[C@H](CC(C)C)NC(=O)[C@H](CCCCN)NC(=O)[C@H](CCCCN)NC(=O)[C@@H](N)CC(C)C)C(=O)N[C@@H](C)C(=O)NCC(=O)O` [LKKLLKLPKKLLKLAG], the MIC in assay [3] was more than 40 µM; in assay [4], 5 µM (≈ 9.02 µg/mL).
